# Measurements: patent US10590086B2, “Pharmaceutical compound” (IOmet Pharma Ltd., priority 2014, dated 2020)
# Legend:
# [1] = biological target: T1, TDO (Homo sapiens, UniProt P48775); assay: hTDO biochemical coupled assay; settings: 330 μM L-tryptophan, read-out: hTDO biochemical assay pIC50 (converted)
# [2] = biological target: T2, IDO (Homo sapiens, UniProt P14902); assay: hIDO biochemical coupled assay; settings: 45 μM L-tryptophan, read-out: hIDO biochemical assay pIC50 (converted)
# [3] = biological target: T1, TDO; assay: A172 kynurenine cell-based assay; design: This assay utilised cancer cells which expressed either TDO or IDO; endogenous in cells; host or cells: A172 (human glioblastoma); settings: A172 human glioblastoma cells, 48 hours, read-out: A172 Kynurenine cell based assay pIC50 (converted)
# Summary of the method: (§1)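 First, A172 or SKOV3 cells were seeded in phenol red-free RPMI, 10% FCS, 2 mM L-glutamine, 500 μM L-tryptophan; SKOV3 received 500 ng/ml IFN-γ for IDO induction. Next came compound exposure, 48 hours, 37° C. Finally, cells were spun out, supernatant treated with Erhlich's reagent, absorbance read at 490 nm.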
# [4] = biological target: T2, IDO; assay: SKOV3 kynurenine cell-based assay (IDO induced by IFN-γ); design: IDO expression was induced in the SKOV3 cells by the addition of 500 ng/ml IFN-γ; endogenous in cells; host or cells: SKOV3 (human ovarian adenocarcinoma), induced with IFN-γ; settings: 48 hours, read-out: SKOV3 Kynurenine cell based assay pIC50 (converted)
# Summary of the method: as §1
# [5] = SKOV3 human ovarian adenocarcinoma cells, 500 ng/ml IFN-γ, 500 μM L-tryptophan
# T2 sequence (P14902 whole entry): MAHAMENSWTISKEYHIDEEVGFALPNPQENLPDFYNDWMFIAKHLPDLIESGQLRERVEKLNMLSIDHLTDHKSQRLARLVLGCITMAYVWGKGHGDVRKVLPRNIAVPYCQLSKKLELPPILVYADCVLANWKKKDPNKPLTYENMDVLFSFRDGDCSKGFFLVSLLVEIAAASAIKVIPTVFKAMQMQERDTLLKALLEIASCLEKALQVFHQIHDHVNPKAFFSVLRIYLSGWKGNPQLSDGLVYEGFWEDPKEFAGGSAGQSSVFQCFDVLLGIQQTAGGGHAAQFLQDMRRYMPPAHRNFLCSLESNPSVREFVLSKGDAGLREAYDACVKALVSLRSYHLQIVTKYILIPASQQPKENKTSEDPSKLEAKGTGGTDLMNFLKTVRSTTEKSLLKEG
# T1 sequence (P48775 whole entry): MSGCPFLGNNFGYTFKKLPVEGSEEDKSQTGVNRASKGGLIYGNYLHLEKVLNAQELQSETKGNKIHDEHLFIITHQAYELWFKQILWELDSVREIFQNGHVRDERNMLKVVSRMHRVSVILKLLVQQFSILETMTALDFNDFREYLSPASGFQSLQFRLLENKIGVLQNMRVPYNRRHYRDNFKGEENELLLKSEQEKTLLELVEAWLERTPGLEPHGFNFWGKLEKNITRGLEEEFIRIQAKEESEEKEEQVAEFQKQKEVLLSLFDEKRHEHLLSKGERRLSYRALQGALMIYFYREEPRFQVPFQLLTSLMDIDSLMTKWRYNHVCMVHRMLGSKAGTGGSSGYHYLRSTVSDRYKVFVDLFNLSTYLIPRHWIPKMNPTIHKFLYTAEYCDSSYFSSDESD
SMILES,"IC50 ([1]; 17 minutes, room temperature) [µM]","IC50 ([2]; 17 minutes, room temperature) [µM]",IC50 ([3]; 500 μM L-tryptophan) [µM],"IC50 [4, 5] [µM]",IC50 [1] [µM],IC50 [2] [µM],IC50 [3] [µM],"IC50 ([4]; SKOV3 cells, IDO induced by 500 ng/ml IFN-γ) [µM]"
c1ccc(CNc2cccc3[nH]ncc23)cc1 [Compound 34],3.24 to 31.6,> 100,32.4 to 100,32.4 to 100,–,–,–,–
NC(=O)C1CCCN(c2cc(Cl)cc3[nH]ncc23)C1 (centres unmarked) [Compound 199],< 3.16,> 100,< 3.16,32.4 to 100,–,–,–,–
CS(=O)(=O)N1CCC(n2cc(-c3cc(Cl)cc4[nH]ncc34)cn2)CC1 [Compound 347],< 3.16,> 100,< 3.16,3.24 to 31.6,–,–,–,–
OC(Cc1ccccc1)c1cc(Cl)cc2[nH]ncc12 (centres unmarked) [Compound 281],< 3.16,3.24 to 31.6,< 3.16,3.24 to 31.6,–,–,–,–
O=C1N[C@H]2CC[C@@H]1CN(c1cc(C(F)(F)F)cc3[nH]ncc13)C2 [Compound 439],< 3.16,3.24 to 31.6,< 3.16,> 100,–,–,–,–
CS(=O)(=O)N1CCN(c2cc(Cl)cc3c(N)n[nH]c23)CC1 [Compound 306],> 100,> 100,3.24 to 31.6,3.24 to 31.6,–,–,–,–
CS(=O)(=O)N1CCC(c2cc(C3CCOCC3)cc3[nH]ncc23)CC1 [Compound 325],> 100,> 100,32.4 to 100,32.4 to 100,–,–,–,–
CS(=O)(=O)c1ccc(-c2cc(Cl)cc3[nH]ncc23)c(F)c1 [Compound 297],< 3.16,3.24 to 31.6,< 3.16,< 3.16,–,–,–,–
"CS(=O)(=O)N1CCC(c2cc(Cl)cc3[nH]ncc23)CC1 [Compound 40, 6-chloro-4-(1-(methylsulfonyl)piperidin-4-yl)-1H-indazole]",< 3.16,< 3.16,< 3.16,3.24 to 31.6,0.302,2.34,0.0832,8.32
Cc1cc(S(C)(=O)=O)ccc1-c1cc(Cl)cc2[nH]ncc12 [Compound 268],< 3.16,32.4 to 100,< 3.16,3.24 to 31.6,–,–,–,–
Clc1cc(N2CCN(c3ncccn3)CC2)c2cn[nH]c2c1 [Compound 309],3.24 to 31.6,> 100,< 3.16,> 100,–,–,–,–
Clc1cc(N2CCc3ccncc3C2)c2cn[nH]c2c1 [Compound 346],< 3.16,> 100,< 3.16,3.24 to 31.6,–,–,–,–
CN1C(=O)[C@@H]2CC[C@H]1CN(c1cc(C(F)(F)F)cc3[nH]ncc13)C2 [Compound 447],< 3.16,3.24 to 31.6,< 3.16,> 100,–,–,–,–
CC(=O)N1CCC(c2cc(C3CCCC3)cc3[nH]ncc23)CC1 [Compound 217],> 100,> 100,> 100,32.4 to 100,–,–,–,–
CN(c1cc(C2CCN(S(C)(=O)=O)CC2)c2cn[nH]c2c1)S(C)(=O)=O [Compound 338],> 100,> 100,3.24 to 31.6,> 100,–,–,–,–
CN1CCN(c2cc(Cl)cc3[nH]ncc23)CC1=O [Compound 332],< 3.16,> 100,< 3.16,> 100,–,–,–,–
CC1(C)CN(c2cc(Cl)cc3c(N)n[nH]c23)CCN1S(C)(=O)=O [Compound 321],> 100,> 100,3.24 to 31.6,3.24 to 31.6,–,–,–,–
CC(=O)N(C)CC1CCN(c2cc(Cl)cc3[nH]ncc23)CC1 [Compound 282],< 3.16,32.4 to 100,< 3.16,3.24 to 31.6,–,–,–,–
CC(=O)N1CCC2(CCN(c3cc(Cl)cc4[nH]ncc34)CC2)C1 [Compound 350],< 3.16,32.4 to 100,< 3.16,3.24 to 31.6,–,–,–,–
Clc1cc(N2CCC(n3cccn3)CC2)c2cn[nH]c2c1 [Compound 339],< 3.16,< 3.16,< 3.16,3.24 to 31.6,–,–,–,–
CS(=O)(=O)N1CCC(C(O)c2cc(Cl)cc3[nH]ncc23)CC1 (centres unmarked) [Compound 333],< 3.16,> 100,3.24 to 31.6,32.4 to 100,–,–,–,–
CNc1cc(-c2cc(Cl)cc3[nH]ncc23)ccn1 [Compound 279],< 3.16,> 100,< 3.16,< 3.16,–,–,–,–
CC(=O)N1CCC(c2cccc3[nH]ncc23)CC1 [Compound 14],32.4 to 100,> 100,3.24 to 31.6,32.4 to 100,–,–,–,–
Clc1cc(N2CCc3[nH]ncc3C2)c2cn[nH]c2c1 [Compound 328],< 3.16,> 100,< 3.16,3.24 to 31.6,–,–,–,–
O=S(=O)(c1ccccc1)N1CCN(c2cccc3[nH]ncc23)CC1 [Compound 15],32.4 to 100,> 100,3.24 to 31.6,32.4 to 100,–,–,–,–
O=C1CN(c2cc(Cl)cc3[nH]ncc23)CCN1 [Compound 318],3.24 to 31.6,> 100,3.24 to 31.6,> 100,–,–,–,–
COCCS(=O)(=O)N1CCC(c2cc(Cl)cc3[nH]ncc23)CC1 [Compound 228],< 3.16,3.24 to 31.6,< 3.16,3.24 to 31.6,–,–,–,–
CC(=O)N(C)c1cc(N2CCN(S(C)(=O)=O)CC2)c2cn[nH]c2c1 [Compound 213],> 100,> 100,32.4 to 100,32.4 to 100,–,–,–,–
Clc1cc(N2CCN(c3ccccn3)CC2)c2cn[nH]c2c1 [Compound 324],< 3.16,> 100,< 3.16,3.24 to 31.6,–,–,–,–

# Second part, the compound after the results:
"IC50 ([1]; 17 minutes, room temperature) [µM]","IC50 ([2]; 17 minutes, room temperature) [µM]",IC50 ([3]; 500 μM L-tryptophan) [µM],"IC50 [4, 5] [µM]",IC50 [1] [µM],IC50 [2] [µM],IC50 [3] [µM],"IC50 ([4]; SKOV3 cells, IDO induced by 500 ng/ml IFN-γ) [µM]",SMILES
< 3.16,< 3.16,< 3.16,> 100,–,–,–,–,CS(=O)(=O)NC1CN(c2cc(Cl)cc3[nH]ncc23)C1 [Compound 431]
< 3.16,> 100,< 3.16,< 3.16,–,–,–,–,CC(=O)N1CCC2(CC1)CN(c1cc(Cl)cc3[nH]ncc13)C2 [Compound 452]
< 3.16,< 3.16,< 3.16,< 3.16,–,–,–,–,CC(=O)N(C)C1CCN(c2cc(Cl)cc3[nH]ncc23)CC1(C)C (centres unmarked) [Compound 450]
> 100,> 100,32.4 to 100,32.4 to 100,–,–,–,–,"CS(=O)(=O)N1CCN(c2cc(Cl)cc3[nH]ncc23)C2CCCCC21 (single isomer, unassigned) [Compound 385]"
< 3.16,> 100,3.24 to 31.6,> 100,–,–,–,–,Cn1cc2c(n1)CN(c1cc(Cl)cc3[nH]ncc13)CC2 [Compound 433]
< 3.16,3.24 to 31.6,< 3.16,> 100,–,–,–,–,Clc1cc(C2CCOCC2)c2cn[nH]c2c1 [Compound 426]
< 3.16,> 100,< 3.16,32.4 to 100,–,–,–,–,Clc1cc(C2CCCCC2)c2cn[nH]c2c1 [Compound 353]
< 3.16,3.24 to 31.6,< 3.16,> 100,–,–,–,–,Clc1cc(N2CCC(c3cscn3)CC2)c2cn[nH]c2c1 [Compound 442]
< 3.16,> 100,< 3.16,> 100,–,–,–,–,O=C1NCNC12CCN(c1cc(Cl)cc3[nH]ncc13)CC2 [Compound 397]
< 3.16,> 100,< 3.16,3.24 to 31.6,–,–,–,–,O=C1NCCN1C1CCN(c2cc(Cl)cc3[nH]ncc23)CC1 [Compound 410]
< 3.16,> 100,3.24 to 31.6,3.24 to 31.6,–,–,–,–,O=C1Nc2ccccc2C12CCN(c1cc(Cl)cc3[nH]ncc13)CC2 [Compound 371]
< 3.16,> 100,< 3.16,3.24 to 31.6,–,–,–,–,CC(=O)Nc1ccc2c(c1)CCN(c1cc(Cl)cc3[nH]ncc13)C2 [Compound 358]
< 3.16,< 3.16,< 3.16,< 3.16,–,–,–,–,O=C1NC2(CCN(c3cc(Cl)cc4[nH]ncc34)CC2)C(=O)N1Cc1ncco1 [Compound 407]
< 3.16,32.4 to 100,< 3.16,< 3.16,–,–,–,–,CC(=O)N1CC2(C1)CN(c1cc(Cl)cc3[nH]ncc13)C2 [Compound 402]
< 3.16,> 100,< 3.16,3.24 to 31.6,–,–,–,–,Clc1cc(N2CCN(c3cccnc3)CC2)c2cn[nH]c2c1 [Compound 375]
< 3.16,> 100,< 3.16,> 100,–,–,–,–,Cc1nc2c(o1)CN(c1cc(Cl)cc3[nH]ncc13)CC2(C)C [Compound 425]
< 3.16,3.24 to 31.6,< 3.16,3.24 to 31.6,–,–,–,–,CS(=O)(=O)N1CCC(c2cc(C(F)F)cc3[nH]ncc23)CC1 [Compound 387]
